Assay [1] deals with Mus musculus. In words: Compound was evaluated for analgesic activity using mouse hotplate test, at the dose 20 mg/kg; Inactive. Set-up: dose 20 mg/kg. Type of assay: functional, organism-based.
Assay [2] concerns Mus musculus. In words: Compound was evaluated for analgesic activity using mouse hotplate test, at the dose 50 mg/kg; Inactive. Type of assay: functional, organism-based. Set-up: dose 50 mg/kg.
The species named for assay [3] is Mus musculus. In words: Compound was evaluated for analgesic activity using mouse hotplate test. Type of assay: functional.
The subject of assay [4] is Mus musculus. As to the kind of experiment: Compound was evaluated for analgesic activity using mouse hotplate test at 7.1-13.8 mg/kg dose. Type of assay: functional.

Activity calls are given as the source filed them. No cut-off for these calls is given here.

The values that follow come from ChEMBL document CHEMBL1123444, “Analgesic actions of 3-substituted 6-tert-butyl-1,2,3,4,5,6-hexahydro-2,6-methano-3-benzazocines” (1986).

A word on the ED50: it is the dose that gives a 50% effect, or the effect in half of the subjects.

In the case of `CC(C)(C)C12CCN(CC3CC3)C(Cc3ccccc31)C2` (stereo not given), in the assay on Mus musculus [1], the ED50 entry was “inactive”. For the compound `C=CCN1CCC2(C(C)(C)C)CC1Cc1ccccc12` (stereo not given), the ED50 entry in the assay on Mus musculus [2] was “inactive”. In the case of `CN1CCC2(C(C)(C)C)CC1Cc1ccccc12` (stereo not given), the ED50 in the assay listed under Mus musculus [3] came to 14.1 mg/kg. Consider `CC(C)(C)C12CCN(CCc3ccccc3)C(Cc3ccccc31)C2` (stereo not given), for which the ED50 with Mus musculus [4] worked out at 9.9 mg/kg. As for `CN1CC[C@]23c4c5ccc(O)c4O[C@H]2[C@@H](O)C=C[C@H]3[C@H]1C5.CN1CC[C@]23c4c5ccc(O)c4O[C@H]2[C@@H](O)C=C[C@H]3[C@H]1C5.O=S(=O)(O)O`, the ED50 in the assay filed under Mus musculus [3] came out at 1.2 mg/kg.
